In ChEMBL document CHEMBL1135599, “Synthesis and evaluation of potent and selective beta(3) adrenergic receptor agonists containing acylsulfonamide, sulfonylsulfonamide, and sulfonylurea carboxylic acid isosteres” (J Med Chem, 2002):

Tests used:
[1] = molecular target: T1, Beta-1 adrenergic receptor (Homo sapiens, UniProt P08588); assay: (§1) concentration-response expressed as a percent of the maximal response to R-(-) isoproterenol (ISO).Emax is the fitted maximal value of the concentration; assay type: functional
Target sequence in this assay (P08588 whole entry, looked up): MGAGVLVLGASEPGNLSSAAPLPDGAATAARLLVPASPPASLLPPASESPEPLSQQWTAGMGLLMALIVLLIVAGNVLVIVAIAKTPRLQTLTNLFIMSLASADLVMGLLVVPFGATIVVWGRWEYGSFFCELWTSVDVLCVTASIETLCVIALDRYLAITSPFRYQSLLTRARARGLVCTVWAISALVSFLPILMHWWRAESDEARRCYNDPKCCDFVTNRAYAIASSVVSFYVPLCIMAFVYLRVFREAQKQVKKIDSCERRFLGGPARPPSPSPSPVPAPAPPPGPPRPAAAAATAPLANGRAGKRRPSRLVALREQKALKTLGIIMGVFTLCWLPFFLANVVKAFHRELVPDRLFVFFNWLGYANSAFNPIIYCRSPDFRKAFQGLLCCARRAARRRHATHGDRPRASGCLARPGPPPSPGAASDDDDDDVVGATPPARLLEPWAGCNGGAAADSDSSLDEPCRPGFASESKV

[2] = molecular target: T2, Beta-2 adrenergic receptor (Homo sapiens, UniProt P07550); assay: as §1; assay type: functional
Target sequence in this assay (P07550 whole entry, looked up): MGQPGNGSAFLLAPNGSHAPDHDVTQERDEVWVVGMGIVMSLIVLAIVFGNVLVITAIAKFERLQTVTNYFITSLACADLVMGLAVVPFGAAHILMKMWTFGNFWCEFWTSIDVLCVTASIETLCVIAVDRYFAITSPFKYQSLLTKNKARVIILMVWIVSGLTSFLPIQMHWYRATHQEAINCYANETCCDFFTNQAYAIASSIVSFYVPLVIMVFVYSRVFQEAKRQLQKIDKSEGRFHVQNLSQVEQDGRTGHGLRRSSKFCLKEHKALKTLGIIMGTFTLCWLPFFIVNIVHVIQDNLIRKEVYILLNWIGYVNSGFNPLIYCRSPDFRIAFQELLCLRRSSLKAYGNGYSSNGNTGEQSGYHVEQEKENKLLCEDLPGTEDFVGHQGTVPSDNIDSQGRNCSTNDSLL

[3] = molecular target: T3, Beta-3 adrenergic receptor (Homo sapiens, UniProt P13945); assay: as §1; assay type: functional
Target sequence in this assay (P13945 whole entry, looked up): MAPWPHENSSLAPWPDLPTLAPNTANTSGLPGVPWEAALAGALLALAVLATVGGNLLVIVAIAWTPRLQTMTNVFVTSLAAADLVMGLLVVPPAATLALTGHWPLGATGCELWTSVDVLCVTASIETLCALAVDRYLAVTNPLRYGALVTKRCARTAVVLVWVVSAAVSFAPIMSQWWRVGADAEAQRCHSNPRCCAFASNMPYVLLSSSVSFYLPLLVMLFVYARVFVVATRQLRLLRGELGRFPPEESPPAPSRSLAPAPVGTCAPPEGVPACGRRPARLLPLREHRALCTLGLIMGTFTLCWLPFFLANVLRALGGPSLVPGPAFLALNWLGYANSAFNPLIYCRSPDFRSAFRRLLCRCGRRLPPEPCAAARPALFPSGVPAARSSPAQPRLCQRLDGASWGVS

[4] = molecular target: T1, Beta-1 adrenergic receptor; assay: Ability to cause cAMP accumulation in CHO cells expressing human beta-1 AR expressed as the negative logarithm of the molar drug concentration; assay type: functional, cell-based
Target sequence in this assay (P08588 whole entry): as the sequence (P08588 whole entry, looked up) above

[5] = molecular target: T2, Beta-2 adrenergic receptor; assay: Ability to cause cAMP accumulation in CHO cells expressing human beta-2 AR expressed as the negative logarithm of the molar drug concentration; assay type: functional, cell-based
Target sequence in this assay (P07550 whole entry): as the sequence (P07550 whole entry, looked up) above

[6] = Selectivity ratio (Beta-1EC50/ Beta-3EC50); assay type: functional
[7] = Selectivity ratio (Beta-2EC50/ Beta-3EC50); assay type: functional
[8] = molecular target: T3, Beta-3 adrenergic receptor
Target sequence in this assay (P13945 whole entry): as the sequence (P13945 whole entry, looked up) above

[9] = Area under curve (AUC) value in dogs after an intravenous dose of 0.2 mg/Kg in 0.025 M aqueous methanesulfonic acid solution with 5% mannitol at a concentration of 0.2; assay type: ADME, organism-based, Canis lupus familiaris; conditions: dog, in vivo
[10] = plasma concentration at the 2.5 hour time; assay type: ADME; conditions: read-out: C
[11] = Half life (t1/2) value in dogs after an intravenous dose of 0.2 mg/Kg; assay type: ADME, organism-based, Canis lupus familiaris; conditions: dog, in vivo
[12] = Volume distribution in dogs after an intravenous dose of 0.2 mg/Kg; assay type: ADME, organism-based; conditions: dog, in vivo
[13] = system: Canis familiaris; assay: Plasma clearance in dogs after an intravenous dose of 0.2 mg/Kg; assay type: ADME, organism-based, Canis lupus familiaris; conditions: dog, in vivo
[14] = molecular target: T1, Beta-1 adrenergic receptor; assay: Receptor binding assay(Beta-1 adrenergic receptor) carried out with membranes prepared from human recombinant Sf9 cells expressing the cloned human receptor in the presence of [125I]iodocyanopindolol; assay type: cell membranes
Target sequence in this assay (P08588 whole entry): as the sequence (P08588 whole entry, looked up) above

[15] = molecular target: T2, Beta-2 adrenergic receptor; assay: Receptor binding assay(Beta-2 adrenergic receptor) carried out with membranes prepared from human recombinant Sf9 cells expressing the cloned human receptor in the presence of [125I]iodocyanopindolol; assay type: cell membranes
Target sequence in this assay (P07550 whole entry): as the sequence (P07550 whole entry, looked up) above

[16] = molecular target: T2, Beta-2 adrenergic receptor; assay: concentration-response expressed as a percent of the maximal response to R-(-) isoprenaline (ISO).Emax is the fitted maximal value of the concentration; assay type: functional
Target sequence in this assay (P07550 whole entry, looked up): as above

[17] = molecular target: T3, Beta-3 adrenergic receptor; assay: Ability to cause cAMP accumulation in CHO cells expressing human beta-3 AR expressed as the negative logarithm of the molar drug concentration; assay type: functional, cell-based
Target sequence in this assay (P13945 whole entry): as the sequence (P13945 whole entry, looked up) above

[18] = Area under curve (AUC) value in dogs after an intravenous dose of 0.2 mg/Kg in 0.025 M aqueous methanesulfonic acid solution with 5% mannitol; assay type: ADME; conditions: dog, in vivo
[19] = molecular target: T1, Beta-1 adrenergic receptor; assay: Concentration that causes 50% inhibition of human beta 1 adrenergic receptor (AR), expressed in CHO cells.; assay type: functional, cell-based
Target sequence in this assay (P08588 whole entry): as the sequence (P08588 whole entry, looked up) above

[20] = molecular target: T2, Beta-2 adrenergic receptor; assay: Concentration that causes 50% inhibition of human beta 2 adrenergic receptor (AR), expressed in CHO cells.; assay type: functional, cell-based
Target sequence in this assay (P07550 whole entry): as the sequence (P07550 whole entry, looked up) above

[21] = plasma concentration at the 2.5 hour time; significant; assay type: ADME
[22] = molecular target: T1, Beta-1 adrenergic receptor; assay: (§2) concentration-response expressed as a percent of the maximal response to R-(-) isoproterenol (ISO); assay type: functional
Target sequence in this assay (P08588 whole entry, looked up): as the sequence (P08588 whole entry, looked up) above

[23] = molecular target: T3, Beta-3 adrenergic receptor; assay: as §2; assay type: functional
Target sequence in this assay (P13945 whole entry, looked up): as the sequence (P13945 whole entry, looked up) above

[24] = molecular target: T3, Beta-3 adrenergic receptor; assay: Activity against human beta 3 adrenergic receptor (AR), expressed in CHO cells.; assay type: functional, cell-based
Target sequence in this assay (P13945 whole entry): as the sequence (P13945 whole entry, looked up) above

[25] = molecular target: T2, Beta-2 adrenergic receptor; assay: concentration-response expressed as a percent of the maximal response to R-(-) isoprenaline (ISO); assay type: functional
Target sequence in this assay (P07550 whole entry, looked up): as the sequence (P07550 whole entry, looked up) above

[26] = molecular target: T2, Beta-2 adrenergic receptor; assay: Activity against human beta 2 adrenergic receptor (AR), expressed in CHO cells; assay type: functional, cell-based
Target sequence in this assay (P07550 whole entry): as the sequence (P07550 whole entry, looked up) above

SMILES | Emax [1] | Emax [2] | Emax [3] | EC50 [4] | EC50 [5] | Ratio [6] | Ratio [7] | EC50 [8] | also measured
CC(=O)NCc1ccc(NC[C@@H](C)NC[C@H](O)c2cccc(Cl)c2)cc1 | 15% | 75% | 123% | 7.94 nM | 3.16 nM | 0.6 | 0.3 | 12.6 nM | –
Cc1ccc(S(=O)(=O)NC(=O)Cc2ccc(NC[C@@H](C)NC[C@H](O)c3cccc(Cl)c3)cc2)cc1 | 23% | 34% | 98% | 631 nM | 79.4 nM | 501 | 63 | 1.26 nM | AUC [9]: 715 ng·h/mL; concentration at 2.5 h [10]: 42.1 ng/mL; half-life [11]: 1 h; Vd [12]: 0.2 L/kg; Clp [13]: 4.7 mL/min/kg; IC50 [14]: 2000 nM; IC50 [15]: 5010 nM
C[C@H](CNc1ccc(CC(=O)O)cc1)NC[C@H](O)c1cccc(Cl)c1 | – | – | – | 79.4 nM | 50.1 nM | 5 | 3.1 | 15.8 nM | IC50 [14]: 1000 nM; IC50 [15]: 794 nM; Emax [16]: 90%
C[C@H](CNc1ccccc1)NC[C@H](O)c1cccc(Cl)c1 | 27% | 100% | 105% | 5.01 nM | 10 nM | 0.3 | 0.5 | 20 nM | –
Cc1ccc(S(=O)(=O)NCCc2ccc(NC[C@@H](C)NC[C@H](O)c3cccc(Cl)c3)cc2)cc1 | 22% | 28% | 98% | 20 nM | 10 nM | 1 | 0.5 | – | EC50 [17]: 20 nM
C[C@H](CNc1ccc(CC(=O)NS(C)(=O)=O)cc1)NC[C@H](O)c1cccc(Cl)c1 | 30% | 78% | 96% | 100 nM | 20 nM | 20 | 4 | 5.01 nM | –
C[C@H](Cc1ccc(OCC(=O)O)cc1)NC[C@H](O)c1cccc(Cl)c1 | 28% | – | – | – | – | – | – | – | Emax [16]: 80%
C[C@H](CNc1ccc(CNS(C)(=O)=O)cc1)NC[C@H](O)c1cccc(Cl)c1 | 11% | 66% | 102% | 5.01 nM | 5.01 nM | 0.4 | 0.4 | 20 nM | –
Cc1ccc(S(=O)(=O)NC(=O)Cc2cccc(NC[C@@H](C)NC[C@H](O)c3cccc(Cl)c3)c2)cc1 | 8% | 16% | 98% | – | – | > 794 | > 158 | 6.31 nM | concentration at 2.5 h [10]: 10.3 ng/mL; AUC [18]: 279 ng·h/mL; half-life [11]: 1.7 h; Vd [12]: 0.409 L/kg; Clp [13]: 11.9 mL/min/kg; IC50 [14]: 5010 nM; IC50 [15]: 15800 nM; EC50 [19]: > 5010 nM; EC50 [20]: > 1000 nM
C[C@H](CNc1cccc(CCS(=O)(=O)NS(=O)(=O)c2ccccc2)c1)NC[C@H](O)c1cccc(Cl)c1 | – | – | – | – | – | > 500 | 630 | – | C [21]: Not Active; half-life [11]: < 1 h; Emax [22]: 21%; Emax [23]: 113%; EC50 [24]: 1.58 nM; Emax [25]: 31%; EC50 [26]: 1000 nM
C[C@H](CNc1ccc(CCC(=O)O)cc1)NC[C@H](O)c1cccc(Cl)c1 | 10% | 22% | 104% | 251 nM | 398 nM | 10 | 16 | 25.1 nM | –
C[C@H](CNc1ccc(CC(=O)NS(=O)(=O)c2ccccc2)cc1)NC[C@H](O)c1cccc(Cl)c1 | 22% | 59% | 110% | 794 nM | 31.6 nM | 1000 | 40 | 0.794 nM | –
C[C@H](CNc1ccc(C(=O)O)cc1)NC[C@H](O)c1cccc(Cl)c1 | 17% | 70% | 79% | 631 nM | 3160 nM | 0.8 | 4 | 794 nM | –
C[C@H](CNc1cccc(CNC(=O)NS(=O)(=O)c2ccccc2)c1)NC[C@H](O)c1cccc(Cl)c1 | 15% | 23% | 105% | – | – | 25 | 16 | – | half-life [11]: < 1 h; EC50 [19]: 398 nM; EC50 [20]: 251 nM; EC50 [17]: 15.8 nM
C[C@H](CNc1cccc(CC(=O)O)c1)NC[C@H](O)c1cccc(Cl)c1 | 6% | – | 117% | > 10000 nM | 50.1 nM | – | 0.2 | 316 nM | Emax [16]: 80%
C[C@H](CNc1ccc(CCS(=O)(=O)NC(=O)c2ccccc2)cc1)NC[C@H](O)c1cccc(Cl)c1 | 27% | 52% | 100% | – | – | 79 | 32 | – | AUC [18]: 383 ng·h/mL; half-life [11]: 1.2 h; Vd [12]: 0.478 L/kg; Clp [13]: 8.7 mL/min/kg; EC50 [19]: 794 nM; EC50 [20]: 316 nM; EC50 [17]: 10 nM
C[C@H](CNc1ccc(CC(=O)Nc2nccs2)cc1)NC[C@H](O)c1cccc(Cl)c1 | 14% | 31% | 101% | 3.16 nM | 7.94 nM | 2.5 | 6.3 | 1.26 nM | –
Cc1ccc(CNC(=O)Cc2ccc(NC[C@@H](C)NC[C@H](O)c3cccc(Cl)c3)cc2)cc1 | 12% | 40% | 126% | 25.1 nM | 1 nM | 0.4 | 0.02 | – | EC50 [17]: 63.1 nM
